Assay results from patent US20210052524A1, “N-ACETYLCYSTEINE AND UREA-BASED FORMULATION FOR THE TREATMENT OF DERMATOLOGICAL DISORDERS” (DERMALENA DI CALDERAN ANDREA, priority 2017, published 2021).

Assays:
[1] = system: complex regional pain syndrome type I; conditions: 50% DMSO applied topically, N-acetylcysteine taken orally; cited from earlier work
[2] = Stability of the active ingredients in the formulation buffered to pH 5.5-6.5; format: physicochemical; conditions: pH 5.5-6.5 (lactic acid neutralized with sodium hydroxide) compared to more acidic or more basic conditions
Description: Preferably, the present formulation for topical use is in the form of a cream or a lotion, and preferably has a pH between 5.5 and 6.5, advantageously about 6.

[3] = system: abdominal incisional wound subjected to radiation; conditions: oral and intra-peritoneal administration, model subjected to radiation; cited from earlier work

| Compound | efficacy in the treatment of complex regional pain syndrome type I [1] | stability [2] | effect on histological, biochemical and mechanical parameters of incisional wound healing [3] |
| --- | --- | --- | --- |
| C[S+](C)[O-] [50% DMSO, DMSO] | equally efficient |  |  |
| CC(=O)N[C@@H](CS)C(=O)O [N-acetylcysteine] | equally efficient | improved | effectiveness |
| NC(N)=O [urea] |  | improved |  |
